From patent publication US20250332298A1, “PEPTIDE-COUPLED ALGINATE GELS COMPRISING RADIONUCLIDES” (BLUE WAVE THERAPEUTICS GMBH, priority 2021, published 2025)
Where “and” joins values, the source holds several entries; their conditions need not be identical. Equal values may be shown once.

Legend:
[1] = Binding efficiency of thorium-227 and its decay daughters to preformed alginate microspheres (calcium cross-linked); assay type: physicochemical; conditions: for Bound at 1 h, Bq: 227Th4+ solution in NaCl; for Bound at 1 h, Bq / Bound at 1 h, %: 1 h incubation; for Bound at 2 h, Bq / Bound at 2 h, %: 2 h incubation; for Bound at 1 h, % / Bound at 2 h, %: % of available radioactivity
Protocol: In this Experiment, binding of a tetravalent radionuclide cation to alginate microspheres was studied.
Calcium crosslinked, inhomogeneous gelled alginate microspheres were made in the same manner as shown in Example 5 above. The microspheres were washed three times using 0.9% NaCl solution, resuspended in 0.8% NaCl and incubated with a solution of ^227Th^4+. Of the available amount of radioactivity, approximately 30% bound to the pre-formed alginate microspheres (Table 3).

[2] = Binding of radium-224 and decay daughters to calcium alginate microparticles and retention over 12 days; conditions: for Day 0 particles directly after labelling, radioactivity: 30 mg microparticles, 30 min room temperature, washed, HPGe; for Day 1 radioactivity associated with particles: 24 hours after labelling; for Day 1 radioactivity associated with particles / Day 12 radioactivity associated with particles: room temperature, after washing with water; for Day 12 radioactivity associated with particles: 12 days after labelling; for Day 0 % bound radioactivity relative to available radioactivity: directly after labelling
Protocol: Calcium alginate was produced via the conversion of sodium alginate powder suspended in isopropyl alcohol by adding an aqueous solution of calcium chloride as exemplified in US 2011/0053886 incorporated herein.
A 30 mg sample of calcium alginate microparticles, having an average size distribution (DV50) of 13 μm, was resuspended first in 200 μl water, then 150 μl radium-224 solution was added followed by an additional 150 μl of water. The sample was vortex mixed then incubated at room temperature for 30 min. An aliquot of 500 μl water was added to the particle suspension. The sample was vortex mixed then centrifuged for 1 min at 6000 rpm. The supernatant was transferred to another Eppendorf tube labelled Wash 1. The particle sample was then resuspended in 1000 μl water, vortexed, then centrifuged. The supernatant was transferred to an Eppendorf tube labelled Wash 2. The wash with 1000 μl water was repeated and the supernatant collected to tube Wash 3. Samples were then analysed for radioactivity using a high purity germanium detector.
The sample was kept at room temperature and analysed again at day 1 (24 hours after labelling) and 12 days after labelling. Radioactivity was determined after first washing the particles with water.
This solution represents the available radioactivity, and radionuclides, added to calcium alginate microparticles. Following incubation and a wash to remove unbound radioactivity, the radioactivity associated with the alginate microparticles was again measured respective to each decay daughter radionuclide. The % bound radioactivity relative to the available radioactivity was calculated.
When the particles were washed on day 1 after labelling, and radioactivity determined (HPGe detector), in addition, the amount of 224-Ra radioactivity theoretically remaining associated with the alginate microparticles was calculated using an available radioactive decay calculator (http://www.radprocalculator.com).

SMILES	Bound at 1 h, Bq [1] [Bq]	Bound at 2 h, Bq [1] [Bq]	Bound at 1 h, % [1] [%]	Bound at 2 h, % [1] [%]	Day 0 particles directly after labelling, radioactivity [2]	Day 1 radioactivity associated with particles [2] [Bq]	Day 12 radioactivity associated with particles [2] [Bq]	Day 0 % bound radioactivity relative to available radioactivity [2] [%]	further results
[211Bi] [Bismuth-211]	10067	11154	90.2	99.9					Bound at 1 h, % ([1]; listed as 211Bi): 100%; Bound at 1 h, % ([1]; listed as bismuth): 100%
[212Bi] [Formulation 212-Bi, bismuth 212]					7640 Bq	7650	910	83.6	
[212Pb] [Formulation 212-Pb, lead-212]					8370 Bq	7840	1040		
[224Ra] [Formulation 224-Ra, radium-224]					8720 Bq and 8740 Bq	7270	913	94.9	Day 1 % radioactivity remaining bound relative to theoretical radioactivity following decay ([2]; Day 1): 100%; Day 12 % radioactivity remaining bound relative to theoretical radioactivity following decay ([2]; Day 12): 100% and 101%
[223Ra] [Radium-223]	10512	11201	111.5	118.8					Bound at 1 h, % ([1]; listed as 223Ra): 100%; Bound at 1 h, % ([1]; listed as radium): 100%
[227Th] [Thorium-227]	24679	30647	30.4	37.7					Bound at 1 h, % ([1]; listed as 227Th): approximately 30%; Bound at 1 h, % ([1]; listed as thorium-227): approximately 30%
